Assay results published in patent US6875752B2, “Uridine derivatives as antibiotics” (Aventis Pharma S.A., priority 2001, dated 2005).

How the values were obtained:
Test in all cases: Method of dilutions in a liquid medium (M.I.C.)
Type in all cases: cell-based
[1] = system: S. aureus; settings: S. aureus strains; incubation twenty-four hours at 37° C.; result in words only
Protocol: (§1) Detail of excipient starch, talc, magnesium stearate. Pharmacological Study of the Products of the Invention Method of Dilutions in a Liquid Medium
(§2) A series of tubes is prepared in which the same quantity of sterile nutritive medium is distributed. Increasing quantities of the product to be studied are distributed into each tube, then each tube is seeded with a bacterial strain. After incubation for twenty-four hours in a heating chamber at 37° C., the growth inhibition is evaluated by transillumination, which allows the minimal inhibitory concentrations (M.I.C.) to be determined, expressed in micrograms/cm^3.

[2] = system: S. pyogenes; settings: S. pyogenes strains; incubation twenty-four hours at 37° C.; result in words only
Protocol: as §1, §2

[3] = system: E. faecium; settings: E. faecium strains; incubation twenty-four hours at 37° C.; result in words only
Protocol: as §1, §2

Measured: activity (growth inhibition, minimal inhibitory concentrations M.I.C.)

CCCCCCCCCCCCCCCC(=O)NC[C@@H](O[C@@H]1O[C@H](CN)[C@@H](O)[C@H]1O)[C@@H]1C[C@@H](O)[C@H](n2ccc(=O)[nH]c2=O)O1 [Example 1, 1-[5-O-(5-amino-5-deoxy-β-D-ribofuranosyl)-3,6-dideoxy-6-[(1-oxohexadecyl)amino]-β-D-ribo-hexofuranosyl]-2,4-(1H,3H)-pyrimidinedione]
good activity: all assays above
